Assay results published in paper PMC5620609 (Pharmaceuticals, 2017).
Where two headings read alike, the source gives them in different places.

Assays:
[1] = system: TP53 WT colon cancer cell line LoVo; assay: In vitro growth inhibition (CellTiter-Glo), LoVo; type: cell-based; details: Homo sapiens, 72 h exposure
Experimental: Further testing was performed in colon cancer cell lines.
Cells were grown in an appropriate medium for the cell line of interest; 96 well plates of each cell line were seeded with 5000 cells per well and left overnight. Drug exposed cells were incubated at 37 °C for 72 h. At the end of the 72 h exposure period, plates were removed for the CellTiter-Glo® assay. Luminescence was recorded on a Synergy 4.0. Assays were performed in triplicate.

OVCAR-5 = assay: NCI 60 cell line panel: OVCAR-5; type: cell-based, human; details: Ovarian cancer, TP53 wild type
Description: (§1) Details of the NCI 60 One Dose Screen are well known and available online.

MDA-MB-435 = assay: NCI 60 cell line panel: MDA-MB-435; type: cell-based, human; details: Melanoma, TP53 null/mutant
Description: as §1

SK-MEL-5 = assay: NCI 60 cell line panel: SK-MEL-5; type: cell-based, human; details: Melanoma, TP53 wild type
Description: as §1

SF-539 = assay: NCI 60 cell line panel: SF-539; type: cell-based, human; details: CNS cancer, TP53 null/mutant
Description: as §1

UO-31 = assay: NCI 60 cell line panel: UO-31; type: cell-based, human; details: Renal cancer, TP53 wild type
Description: as §1

RNR = target: T1, RNR (Homo sapiens, UniProt P23921); assay: RNR inhibition whole cell assay (HPLC of nucleotides from HeLa cell extracts); type: cell-based; details: 50 µM, 16 h
T1 construct: endogenous in cells; host or cells: HeLa
T1 sequence (P23921 1-792): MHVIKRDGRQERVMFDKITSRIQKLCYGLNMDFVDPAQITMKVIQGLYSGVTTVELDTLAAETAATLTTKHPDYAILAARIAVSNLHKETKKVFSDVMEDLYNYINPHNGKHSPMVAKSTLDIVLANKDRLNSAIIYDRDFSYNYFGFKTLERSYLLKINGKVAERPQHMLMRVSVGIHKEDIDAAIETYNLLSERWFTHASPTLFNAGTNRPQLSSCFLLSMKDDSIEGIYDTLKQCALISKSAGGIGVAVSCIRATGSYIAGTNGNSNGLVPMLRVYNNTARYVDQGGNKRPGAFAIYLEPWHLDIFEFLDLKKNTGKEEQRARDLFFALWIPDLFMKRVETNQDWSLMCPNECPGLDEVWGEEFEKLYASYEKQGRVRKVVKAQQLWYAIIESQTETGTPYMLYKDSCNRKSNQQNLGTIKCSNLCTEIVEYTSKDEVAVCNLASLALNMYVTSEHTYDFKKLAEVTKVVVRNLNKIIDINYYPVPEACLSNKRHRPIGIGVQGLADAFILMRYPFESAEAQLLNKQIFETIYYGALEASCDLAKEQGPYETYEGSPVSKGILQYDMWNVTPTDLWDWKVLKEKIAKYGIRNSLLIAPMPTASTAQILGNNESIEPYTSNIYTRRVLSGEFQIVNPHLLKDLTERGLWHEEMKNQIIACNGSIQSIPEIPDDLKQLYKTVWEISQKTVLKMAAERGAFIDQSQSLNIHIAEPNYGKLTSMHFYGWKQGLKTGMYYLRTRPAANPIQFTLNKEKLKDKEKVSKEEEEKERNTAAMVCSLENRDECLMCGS
T1 sequence (P31350 1-389 partner): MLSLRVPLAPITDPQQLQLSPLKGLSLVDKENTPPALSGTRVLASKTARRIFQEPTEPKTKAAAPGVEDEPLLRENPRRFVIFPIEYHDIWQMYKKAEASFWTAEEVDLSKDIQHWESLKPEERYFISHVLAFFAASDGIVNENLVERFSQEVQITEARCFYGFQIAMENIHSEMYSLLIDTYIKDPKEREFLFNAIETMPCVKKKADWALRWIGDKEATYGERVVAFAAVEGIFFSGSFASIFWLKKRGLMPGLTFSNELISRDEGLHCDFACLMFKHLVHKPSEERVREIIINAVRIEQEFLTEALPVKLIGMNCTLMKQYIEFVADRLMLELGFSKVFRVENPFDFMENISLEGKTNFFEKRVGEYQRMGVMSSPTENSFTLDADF
Description: Gemcitabine was used as a positive control.
The method used to extract and quantitate nucleotides followed previously reported procedures.

NCI-H226 = assay: NCI 60 cell line panel: NCI-H226; type: cell-based, human; details: NSCL, TP53 null/mutant
Description: as §1

HCT-116 = assay: NCI 60 cell line panel: HCT-116; type: cell-based, human; details: Colon cancer, TP53 wild type
Description: as §1

SK-MEL-2 = assay: NCI 60 cell line panel: SK-MEL-2; type: cell-based, human; details: Melanoma, TP53 null/mutant
Description: as §1

SNB-19 = assay: NCI 60 cell line panel: SNB-19; type: cell-based, human; details: CNS cancer, TP53 null/mutant
Description: as §1

[2] = Pharmacokinetic study, IV in mice; type: in vivo; details: 10 mg/kg; for half-life: iv
Experimental: Blood aliquots (300–400 µL) were collected via cardiac puncture from anesthetized mice in anticoagulant coated tubes, then kept on ice and centrifuged at 2500× g for 15 min at 4 °C. The plasma was harvested and kept frozen at −80 °C. Plasma samples were processed using acetonitrile precipitation and analyzed by HPLC-MS/MS. A plasma calibration curve was generated and a reportable linear range determined, along with the lower limit of quantitation.

NCI-H23 = assay: NCI 60 cell line panel: NCI-H23; type: cell-based, human; details: NSCL, TP53 null/mutant
Description: as §1

UACC-62 = assay: NCI 60 cell line panel: UACC-62; type: cell-based, human; details: Melanoma, TP53 wild type
Description: as §1

NCI-H322M = assay: NCI 60 cell line panel: NCI-H322M; type: cell-based, human; details: NSCL, TP53 null/mutant
Description: as §1

BT-549 = assay: NCI 60 cell line panel: BT-549; type: cell-based, human; details: Breast cancer, TP53 null/mutant
Description: as §1

NCI-H460 = assay: NCI 60 cell line panel: NCI-H460; type: cell-based, human; details: NSCL, TP53 wild type
Description: as §1

MDA-MB-231 = assay: NCI 60 cell line panel: MDA-MB-231; type: cell-based, human; details: Breast cancer, TP53 null/mutant
Description: as §1

RXF 393 = assay: NCI 60 cell line panel: RXF 393; type: cell-based, human; details: Renal cancer, TP53 null/mutant
Description: as §1

SF-295 = assay: NCI 60 cell line panel: SF-295; type: cell-based, human; details: CNS cancer, TP53 null/mutant
Description: as §1

Nc1ncn([C@@H]2O[C@H](CO)[C@@H](O)C2(F)F)c(=O)n1 [NUC013, 5-aza-2′,2′-difluroro deoxycytidine]
GI50 [1]: 3000 nM | Growth (%) at 10 µM (OVCAR-5): 86.95% | Growth (%) at 10 µM (MDA-MB-435): 53.04% | Growth (%) at 10 µM (SK-MEL-5): 70.84% | Growth (%) at 10 µM (SF-539): 22.25% | Growth (%) at 10 µM (UO-31): 39.00% | ADP concentration (RNR): 13,845 | ATP concentration (RNR): 21,335 | CTP concentration (RNR): 1279 | GTP concentration (RNR): 2006 | UTP concentration (RNR): 4070 | dATP, peak area (RNR): 10.2 AU | dGDP, peak area (RNR): 5.6 AU | dTDP, peak area (RNR): 18.65 AU | dUTP, peak area (RNR): 8.8 AU | Growth (%) at 10 µM (NCI-H226): 52.34% | Growth (%) at 10 µM (HCT-116): 29.84% | Growth (%) at 10 µM (SK-MEL-2): 104.47% | Growth (%) at 10 µM (SNB-19): 58.88% | identification in plasma at the 6 and 24 h timepoints ([2]; mice, IV): could not be identified | half-life ([2]; mouse, plasma, mice, intravenous injection, read-out: half-life): 20.1 min | half-life ([2]; mouse, plasma, mouse, IV, plasma, non-compartmental, read-out: t1/2 (converted)): 20.1 min | AUC Extr ([2]; mouse, IV, plasma): 0.04% | AUC(0-inf) ([2]; mouse, IV, plasma): 11100 ng·h/mL | AUC(0-t) ([2]; mouse, IV, plasma): 11100 ng·h/mL | C0 ([2]; mouse, IV, plasma): 36900 ng/mL | Last time point for AUClast ([2]; mouse, IV, plasma): 4 h | MRT ([2]; mouse, IV, plasma): 17.5 min | Vd ([2]; mouse, IV, plasma, read-out: Vss): 0.26 L/kg | Growth (%) at 10 µM (NCI-H23): 30.61% | Growth (%) at 10 µM (UACC-62): 47.29% | Growth (%) at 10 µM (NCI-H322M): 70.00% | Growth (%) at 10 µM (BT-549): 53.63% | Growth (%) at 10 µM (NCI-H460): 9.34% | Growth (%) at 10 µM (MDA-MB-231): 79.98% | Growth (%) at 10 µM (RXF 393): 44.97% | Growth (%) at 10 µM (SF-295): 77.93%
